Earlier results in patent publication US12133849B2, “Method for treating cancer using a BCL-2 inhibitor in conjunction with an alpha- emitting radioimmunotherapeutic” (Actinium Pharmaceuticals, Inc., priority 2017, dated 2024).

- patients experiencing grade 3 and/or 4 neutropenia: 40%
SMILES: CC1(C)CCC(CN2CCN(c3ccc(C(=O)NS(=O)(=O)c4ccc(NCC5CCOCC5)c([N+](=O)[O-])c4)c(Oc4cnc5[nH]ccc5c4)c3)CC2)=C(c2ccc(Cl)cc2)C1 [venetoclax]
